Results taken from paper PMC10402201, “CYP5122A1 encodes an essential sterol C4-methyl oxidase in Leishmania donovani and determines the antileishmanial activity of antifungal azoles” (Research Square, 2023).

Tests used:
[1] = biological target: T1, CYP51 (Leishmania donovani, UniProt A0A3S7WRS7); assay: UV-Vis difference spectra (type II binding), plus BFC inhibition assay
T1 construct: gene LdCL_110017000; truncated form of XP_003859085.1 without the first 31 amino acids (transmembrane domain), N-terminal solubility tag, C-terminal His-tag
T1 sequence (A0A3S7WRS7 32-480): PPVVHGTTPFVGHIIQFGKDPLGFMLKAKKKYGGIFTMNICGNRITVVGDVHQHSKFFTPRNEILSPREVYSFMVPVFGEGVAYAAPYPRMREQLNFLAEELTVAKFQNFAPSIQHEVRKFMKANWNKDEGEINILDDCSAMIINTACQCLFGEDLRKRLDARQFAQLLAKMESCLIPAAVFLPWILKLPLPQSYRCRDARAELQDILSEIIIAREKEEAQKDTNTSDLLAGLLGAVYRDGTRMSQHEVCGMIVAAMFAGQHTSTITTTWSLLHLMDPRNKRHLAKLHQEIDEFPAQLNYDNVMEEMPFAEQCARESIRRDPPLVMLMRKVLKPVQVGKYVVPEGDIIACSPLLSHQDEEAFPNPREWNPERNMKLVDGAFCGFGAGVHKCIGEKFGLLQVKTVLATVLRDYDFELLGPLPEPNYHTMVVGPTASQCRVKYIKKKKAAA

[2] = biological target: T2, CYP5122A1 (Leishmania donovani, UniProt A0A3S7X0B6); assay: as above
T2 construct: gene LdCL_270005800; truncated form of XP_003861867.1 without the first 60 amino acids (transmembrane domain), N-terminal solubility tag, C-terminal His-tag
T2 sequence (A0A3S7X0B6 61-592): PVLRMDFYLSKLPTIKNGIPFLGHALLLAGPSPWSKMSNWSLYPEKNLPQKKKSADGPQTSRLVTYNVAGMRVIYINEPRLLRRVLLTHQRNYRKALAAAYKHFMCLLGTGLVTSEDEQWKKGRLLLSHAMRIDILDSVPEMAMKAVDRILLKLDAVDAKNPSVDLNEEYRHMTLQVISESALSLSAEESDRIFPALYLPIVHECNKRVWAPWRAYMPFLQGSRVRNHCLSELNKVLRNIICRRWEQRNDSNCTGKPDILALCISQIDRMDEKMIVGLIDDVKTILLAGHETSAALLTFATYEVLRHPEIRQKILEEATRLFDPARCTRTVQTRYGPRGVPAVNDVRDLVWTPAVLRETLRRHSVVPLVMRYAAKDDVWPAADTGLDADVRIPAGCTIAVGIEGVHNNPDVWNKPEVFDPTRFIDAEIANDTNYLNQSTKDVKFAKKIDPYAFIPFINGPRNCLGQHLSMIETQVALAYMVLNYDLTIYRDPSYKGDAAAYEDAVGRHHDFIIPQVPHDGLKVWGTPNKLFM

Structure (SMILES)	UV-Vis difference spectra (type II binding), plus BFC inhibition assay [1]	UV-Vis difference spectra (type II binding), plus BFC inhibition assay [2]
OC(Cn1cncn1)(Cn1cncn1)c1ccc(F)cc1F [fluconazole]	Fluconazole and voriconazole elicited type II binding with CYP51 but no specific responses with CYP5122A1	
C[C@@H](c1ncncc1F)[C@](O)(Cn1cncn1)c1ccc(F)cc1F [voriconazole]	Fluconazole and voriconazole elicited type II binding with CYP51 but no specific responses with CYP5122A1	
Clc1ccccc1C(c1ccccc1)(c1ccccc1)n1ccnc1 [clotrimazole]	Clotrimazole exhibited type II binding to both CYP51 and CYP5122A1	Clotrimazole exhibited type II binding to both CYP51 and CYP5122A1
